Here are results for six compounds from patent publication US4181802A, “1-(Heterocyclylalkyl)-1,3-dihydro-2-H-benzimidazole-2-ones” (Janssen Pharmaceutica N.V., priority 1978, dated 1980).

Assay type in all cases: cell-based
Assay [1] has as its target T1, β-adrenergic receptor (β1), guinea-pig right atrium (Cavia porcellus, UniProt H0W3H1).
T1 construct: Spontaneously beating right atria are dissected from guinea-pigs; from tissue; host or cells: guinea-pig right atrium (strip with sinoatrial node)
In words: Guinea-pig right atrium (β1): inhibition of isoprenaline-induced increase in heart rate. Particulars: Table I, isolated guinea-pig right atrium, drug incubation 30 min, 37.5° C., ED50 estimated graphically. On the procedure:
1. GUINEA-PIG RIGHT ATRIUM (β1)
Spontaneously beating right atria are dissected from guinea-pigs (400±50 g). A triangular strip of atrium, including the sinoatrial node is excised together with the anterior vena cava.
The vena is fixed to a glass muscle holder and the opposite atrial muscle is connected to a Grass isometric transducer. Atria are suspended at optimal preload in a 100 ml Krebs-Henseleit solution, containing 2 g/l glucose, at 37.5° C. and aerated with 95% O2 and 5% CO2.
Heart rate and contractile force are recorded by means of a Grass FTO3C isometric transducer. Output signals amplified by an isometric transducer amplifier (J.S.I.) via a cardiotachometer (J.S.I.) are recorded on a Honeywell XYY' recorder. […] This produces a dose related increase in heart rate (a). After washing out isoprenaline a stabilization period of 15 min. is allowed. A drug is then added to the bath fluid for 30 min. During this incubation period possible direct chronotropic and inotropic effects of the drug are determined. Following this, a second dose-response curve for isoprenaline is produced by infusion during 10 minutes (b). The slope of the increase in rate is graphically estimated for each period of isoprenaline addition and the ratio b/a is calculated. Based on solvent experiments a ratio of less than 0.70 is considered as the criterion of inhibitory activity. ED50 -values are estimated graphically.

For assay [2], the system named is β-adrenergic receptor (β2), guinea-pig tracheal ring. Kind of assay: Guinea-pig tracheal ring (β2): inhibition of isoprenaline-induced relaxation. Particulars: Table I; ratio of ED50 tracheal ring / ED50 right atrium. The source says: (§1) 2. GUINEA-PIG TRACHEAL RING (β2)
(§2) The trachea is dissected from guinea-pigs (400±50 g). Four rings, approximately 8 mm in width, are then cut from each trachea. Cartilaginous parts of the tracheal ring are mounted horizontally between two metal rods, one of which is attached to a glass organholder, the other rod being connected to a Grass isometric transducer. Using such a technique the tracheal smooth muscle is suspended optimally i.e. midway between the cartilaginous parts. the prepared rings are suspended in a 100 ml organ chamber filled with Tyrode solution, maintained at 35° C. and aerated with 95% O2 and 5% CO2. The preparation is maintained at tension of 1.5 g throughout the experiment. Tension changes recorded are thus an expression of contraction or relaxation. After a stabilization period of 30 min contraction is induced by adding methacholine (1 μg/ml) to the bath for a 10 min period. Addition of isoprenaline (0.08 μg/ml) for 4 min. in the presence of methacholine induces a relaxation of the tracheal ring. This procedure is repeated twice before adding the drug (t-33'; t-19') and once 30 min after addition of the drug. During the incubation period any direct effects of the drug are measured. A 50% inhibition of the agonist-induced response is used as the criterion of effectiveness and ED50 values (with fiducial limits) are determined by probit analysis.
(§3) The ratio of the ED50 -values obtained in respectively the tracheal ring test (β2) and in the right atrium test (β1) may be considered as an index of the cardioselectivity of the test drug.

The target in assay [3] is T2, β-adrenergic receptor (β2), guinea-pig tracheal ring (Cavia porcellus, UniProt Q8K4Z4).
T2 construct: The trachea is dissected from guinea-pigs; from tissue; host or cells: guinea-pig tracheal smooth muscle (rings)
The assay is described as above. The note with it: Table I; guinea-pig tracheal ring, methacholine 1 μg/ml, isoprenaline 0.08 μg/ml, 30 min after drug, 35° C.; probit analysis; read-out: β2 = ED50 tracheal ring (converted).
Excerpt: as §1, §2, §3

T1 sequence (H0W3H1 1-470): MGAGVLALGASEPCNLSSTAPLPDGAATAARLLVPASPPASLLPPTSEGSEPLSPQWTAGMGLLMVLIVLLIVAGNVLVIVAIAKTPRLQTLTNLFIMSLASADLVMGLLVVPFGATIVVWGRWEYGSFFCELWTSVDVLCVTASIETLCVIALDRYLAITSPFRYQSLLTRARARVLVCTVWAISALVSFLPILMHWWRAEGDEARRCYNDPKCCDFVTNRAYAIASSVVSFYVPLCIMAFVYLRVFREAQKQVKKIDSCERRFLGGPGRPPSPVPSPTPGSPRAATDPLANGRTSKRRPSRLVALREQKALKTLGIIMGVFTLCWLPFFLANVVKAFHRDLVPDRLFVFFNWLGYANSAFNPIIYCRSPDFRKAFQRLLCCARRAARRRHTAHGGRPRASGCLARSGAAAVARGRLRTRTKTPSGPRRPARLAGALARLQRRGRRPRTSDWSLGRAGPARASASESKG
T2 sequence (Q8K4Z4 whole entry): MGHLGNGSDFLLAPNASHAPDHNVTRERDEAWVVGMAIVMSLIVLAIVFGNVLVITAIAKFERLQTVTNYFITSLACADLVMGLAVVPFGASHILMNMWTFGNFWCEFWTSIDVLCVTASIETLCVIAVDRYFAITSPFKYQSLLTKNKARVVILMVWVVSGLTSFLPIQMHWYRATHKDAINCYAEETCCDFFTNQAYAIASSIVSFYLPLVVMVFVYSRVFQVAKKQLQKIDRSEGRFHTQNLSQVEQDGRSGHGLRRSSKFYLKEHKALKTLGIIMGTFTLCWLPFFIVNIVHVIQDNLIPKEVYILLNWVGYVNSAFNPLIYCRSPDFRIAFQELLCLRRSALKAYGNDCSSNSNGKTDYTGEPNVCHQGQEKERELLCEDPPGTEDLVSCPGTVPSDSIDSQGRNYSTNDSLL

For `O=c1[nH]c2cc(Cl)ccc2n1CC1CCCN(CC(O)COc2ccc(F)cc2)C1` (stereo not drawn) [4-FC6 H4,5-Cl], the IC50 was 11.5 nM in assay [1] and 714 nM in assay [3]. Also, in assay [2], the “β2/β1 (ratio of the ED50 values, tracheal ring to right atrium; index of cardioselectivity)” value is 62.
For `O=c1[nH]c2ccc(Cl)cc2n1CC1CCCN(CC(O)COc2ccc(F)cc2)C1` (stereo not drawn) [4-FC6 H4,6-Cl] the same measures were 11.5 nM, 184 nM and 16.
`O=c1[nH]c2ccccc2n1CC1CCCN(CC(O)COc2ccc(F)cc2)C1` (stereo not drawn) [4-FC6 H4, H]: the IC50 was 3.13 nM in assay [1] and 25 nM in assay [3]. The “β2/β1 (ratio of the ED50 values, tracheal ring to right atrium; index of cardioselectivity)” value in assay [2] was found to be 8.
The matching figures for `O=c1[nH]c2cc(Cl)ccc2n1CC1CCCN(CC(O)COc2ccccc2)C1` (stereo not drawn) [C6 H5,5-Cl]: 12 nM, 192 nM and 16.
The matching figures for `O=c1[nH]c2cc(F)ccc2n1CC1CCCN(CC(O)COc2ccccc2)C1` (stereo not drawn) [C6 H5,5-F]: 3.13 nM, 12.5 nM and 4.
For `O=c1[nH]c2ccccc2n1CC1CCCN(CC(O)COc2ccccc2)C1` (stereo not drawn) [C6 H5, H] the same measures were 1.65 nM, 23.3 nM and 15.
